Structures can show the parent of a compound that is named as a salt.
Tests used:
[1] = molecular target: T1, PTP-1B (wild type, residues 1-298) (Homo sapiens, UniProt P18031); assay: PTP-1B activity assay with pNPP, with or without DTT added afterwards; format: biochemical; conditions: FIG. 1
T1 construct: PTP-1B (wild type, residues 1-298) was exchanged into DFTN buffer
T1 sequence (P18031 1-298): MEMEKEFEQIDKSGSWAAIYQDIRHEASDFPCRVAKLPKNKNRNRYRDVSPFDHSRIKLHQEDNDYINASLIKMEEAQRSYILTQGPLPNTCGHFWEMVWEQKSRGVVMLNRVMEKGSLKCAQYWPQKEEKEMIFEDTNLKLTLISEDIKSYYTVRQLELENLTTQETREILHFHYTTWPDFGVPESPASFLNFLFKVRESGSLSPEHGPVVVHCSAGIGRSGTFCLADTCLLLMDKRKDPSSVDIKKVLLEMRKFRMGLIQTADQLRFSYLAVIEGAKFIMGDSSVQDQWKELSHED
Description: (§1) PTP-1B (wild type, residues 1-298) was exchanged into DFTN buffer (DTT-free, 50 mM Tris, 100 mM NaCl, 1 mM EDTA, pH 7.4) using a NAP-5 column, and the concentration of protein was quantified using the absorbance at 280 nm. Purity of the PTP-1B was evidenced by a single mass peak (mass=34,672 amu in a mass spectrometer).
(§2) To 99 mL solution of 1.0 μM PTP-1B in buffer was added 1 mL of Compound 1 in DMSO […]. After 15 minutes, each Compound 1-treated PTP-1B sample was evaluated by mass spectrometry (QSTAR protein mass spectrometer with Baynesian protein mass deconvolution). Concurrently, two 10 μL aliquots were removed. One aliquot was diluted with 10 μL DFTN buffer while the other aliquot was diluted with 10 μL TN buffer (1 mM DTT, 50 mM Tris, 100 mM NaCl, 1 mM EDTA, pH 7.4). After 15 minutes, the samples were diluted with 90 μL pNPP solution (5.6 mM pNPP in DFTN) and the A405 of the solution was monitored for 5 minutes.

[2] = Weight change in leptin-deficient (ob/ob) mice; format: in vivo; conditions: for weight change: PO BID for 7 days, FIG. 3
Description: To investigate Compound 1's effect on various metabolic disorders including diabetes and obesity, in vivo studies were conducted in the ob/ob obese mouse model and in the db/db diabetic model. The ob/ob mouse is deficient in the hormone leptin, a 16 kDa protein that is secreted by fat cells and plays a key role in regulating energy intake and energy expenditure, including the regulation of appetite and metabolism. […] Compound 1 was tested in these metabolic disease models along with two anti-diabetic drugs that also affect body weight, metformin hydrochloride and rosiglitazone maleate.
Male BKS.Cg-m+/+Leprdb/J (˜5 weeks of age) and B6.V-Lepob/J mice (˜8 weeks of age) were used for in vivo efficacy studies. Mice were housed 4 per cage and acclimated for 10 days prior to the start of the study. […] Mice were weighed each morning just prior to dosing. Mice were fasted overnight between study day 1 and 2 and blood glucose was measured in the morning of day 2 using a glucometer and blood from a tail nick. Food was returned to the mice ad libitum and the mice were again fasted overnight between study day 3 and 4, 5 and 6, and 7 and 8.

[3] = cited from earlier work
[4] = molecular target: T1, PTP-1B (wild type, residues 1-298); assay: Mass spectrometry of PTP-1B treated with Compound 1; format: binding; conditions: 1 equivalent of Compound 1 for 15 minutes, FIG. 2
Description: as §1, §2

[5] = Weight change in db/db mice (mutation mapped to leptin receptor); format: in vivo; conditions: FIG. 4
Description: To investigate Compound 1's effect on various metabolic disorders including diabetes and obesity, in vivo studies were conducted in the ob/ob obese mouse model and in the db/db diabetic model. The ob/ob mouse is deficient in the hormone leptin, a 16 kDa protein that is secreted by fat cells and plays a key role in regulating energy intake and energy expenditure, including the regulation of appetite and metabolism. Leptin-deficient mice are severely obese and develop diabetes but revert to normal weight upon leptin administration. In the second model, the mice have a genetic mutation mapped to the leptin receptor (db/db) and at the time of the experiment were moderately overweight. Compound 1 was tested in these metabolic disease models along with two anti-diabetic drugs that also affect body weight, metformin hydrochloride and rosiglitazone maleate.
Male BKS.Cg-m+/+Leprdb/J (˜5 weeks of age) and B6.V-Lepob/J mice (˜8 weeks of age) were used for in vivo efficacy studies. Mice were housed 4 per cage and acclimated for 10 days prior to the start of the study. […] Mice were fasted overnight between study day 1 and 2 and blood glucose was measured in the morning of day 2 using a glucometer and blood from a tail nick. […]

Compound | relative activity of PTP-1B ([1]; 0-2 equivalents of Compound 1, 15 minutes) | reversibility of covalent inhibition of PTP-1B ([1]; upon addition of a reducing agent such as DTT) | difference in weight loss between doses ([2]; 20 mg/kg vs 100 mg/kg Compound 1 dosed orally BID) | weight change [2] | cell permeability ([3]; data from clinical trials) | bioavailability of the selenium moiety ([3]; human, in vivo) | oral bioavailability ([3]; humans, clinical trials) | tolerability ([3]; humans, clinical trials) | toxicity ([3]; up to 500 mg/day oral dose in humans) | covalent modification of PTP-1B (mass spectrum) [4] | statistical significance of weight gains [5]
O=c1c2ccccc2[se]n1-c1ccccc1 [Compound 1, 2-phenyl-1,2-benzisoselenazol-3(2H)-one] | inhibits the activity | reversible | No significant difference in weight loss | promoted weight loss | cell-permeable | not bioavailable | orally bioavailable | well tolerated | no toxicity was observed | covalently modifies | 
CN(C)C(=N)N=C(N)N [metformin, metformin hydrochloride, reference compound] |  |  |  | promoted weight loss |  |  |  |  |  |  | 
CN(CCOc1ccc(CC2SC(=O)NC2=O)cc1)c1ccccn1.O=C(O)/C=C\C(=O)O (stereo not shown) [rosiglitazone, rosiglitazone maleate, reference compound] |  |  |  | gained weight |  |  |  |  |  |  | except for the rosiglitazone-treated mice, the weight gains were not statistically significant
